Broadly, the IC50 is the concentration that inhibits the measured activity by half.

Holding throughout (assay type): cell-based
Assay [1] has as its target T1, human CCR6 (Homo sapiens, UniProt P51684).
T1 sequence (P51684 1-374): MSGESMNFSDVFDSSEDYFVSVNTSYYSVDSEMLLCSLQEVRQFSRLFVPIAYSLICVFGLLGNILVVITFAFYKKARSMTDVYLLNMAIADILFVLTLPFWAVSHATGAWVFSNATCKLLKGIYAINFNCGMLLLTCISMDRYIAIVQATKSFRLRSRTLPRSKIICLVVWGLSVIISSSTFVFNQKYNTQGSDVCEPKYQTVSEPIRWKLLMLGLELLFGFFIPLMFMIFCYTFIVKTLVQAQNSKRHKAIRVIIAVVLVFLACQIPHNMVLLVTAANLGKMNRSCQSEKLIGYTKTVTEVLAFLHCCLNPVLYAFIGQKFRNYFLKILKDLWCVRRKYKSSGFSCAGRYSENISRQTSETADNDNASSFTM
Put plainly: Human CCR6-CRE reporter assay. The following applies: relative -Log IC50; 293FT cells transfected with human CCR6 and CRE-luciferase reporter; 6 μM Forskolin, 6 nM CCL20; 5 h. Details: The second construct contained the open reading frame of human CCR6 in the pUNO1 backbone; host or cells: 293FT cells. The essentials: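 293FT cells transiently co-transfected with human CCR6 and a CRE-luc2P reporter, used 48 h later. Compounds incubated with cells in medium containing 6 μM Forskolin and 6 nM CCL20 (assay-medium levels), 0.1% DMSO final, 5 h at 37° C; luminescence read, relative −Log IC50 from four-parameter fit.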

For assay [2], the target named is T1, human CCR6. As to the kind of experiment: CHO-K1 CCR6 chemotaxis assay towards CCL20. The following applies: relative -Log IC50; CHO-K1 cells overexpressing human CCR6; migration towards 100 ng/ml CCL20; 4 h. The essentials:
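Human CCR6-overexpressing CHO-K1 cells (2*10^6 cells/ml) were preincubated 30 min at 37 °C with compound (0.2% DMSO), then allowed to migrate 4 h through 8 µm Transwell pores toward 100 ng/ml CCL20. Migrated cells were counted by CellTiter Glo. −Log IC50 came from four-parameter fits normalised to DMSO without/with CCL20.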

For another assay, the system named is Human CD4+ T cells. Put plainly: CD4+ T cells chemotaxis assay towards CCL20. The following applies: Homo sapiens, CD4+ T cell, 3 h, relative -Log IC50, human CD4+ T cells stimulated with anti-CD3 and anti-CD28, migration towards 150 ng/ml CCL20. In a few lines: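 Donor cells were stimulated overnight with anti-CD3/anti-CD28, then preincubated with compound for 30 min at 37° C (0.2% DMSO final). Migration through […]-pore Transwells toward 150 ng/ml CCL20 ran for 3 h at 37° C. Migrated cells were counted by CellTiter Glo, and relative −Log IC50 came from a four-parameter fit of % inhibition.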

Molecules are shown by their SMILES.

With `Cc1cnc2ccc(-c3ccc(S(=N)(=O)[C@H]4CC[C@H](Nc5ccc(S(F)(F)(F)(F)F)cc5)CC4)cc3)cn12` (stereo partly drawn) [Example 89, (4-{3-methylimidazo[1,2-a]pyridin-6-yl}phenyl)[trans-4-{[4-(pentafluoro-λ^6-sulfanyl)phenyl]Amino}cyclohexyl](imino)-λ^6-sulfanone], the values for the IC50 against human CCR6 [1], against human CCR6 [2] and with Human CD4+ T cells were 158 nM, 79.4 nM and 39.8 nM, respectively.

On to `N#Cc1c[nH]c2ccc(-c3ccc(S(=N)(=O)[C@H]4CC[C@H](Nc5ccc(S(F)(F)(F)(F)F)cc5)CC4)cc3)cc12` (stereo partly drawn) [Example 85, 5-(4-{[trans-4-{[4-(pentafluoro-λ^6-sulfanyl)phenyl]Amino}cyclohexyl]sulfonimidoyl}phenyl)-1H-indole-3-carbonitrile], for which the IC50 on human CCR6 [1] was 100 nM; at human CCR6 [2], 126 nM; with Human CD4+ T cells, 25.1 nM.

Take `Cc1nnc2ccc(-c3ccc(S(=O)(=O)N4CCC(Nc5ccc(S(F)(F)(F)(F)F)cc5)CC4)cc3)cn12` [Example 27, 1-(4-{3-methyl-[1,2,4]triazolo[4,3-a]pyridin-6-yl}benzenesulfonyl)-N-[4-(pentafluoro-λ^6-sulfanyl)phenyl]piperidin-4-amine]: the IC50 against human CCR6 [1] is 63.1 nM; against human CCR6 [2] it was 63.1 nM; in the assay with Human CD4+ T cells, 5.01 nM.

As to `O=S(=O)(c1ccc(-c2ccc3nnc(C(F)F)n3c2)cc1)[C@H]1CC[C@H](Nc2ccc(S(F)(F)(F)(F)F)cc2)CC1` [Example 176, 4-(pentafluoro-λ^6-sulfanyl)-N-[trans-4-{4-[3-(difluoromethyl)-[1,2,4]triazolo[4,3-a]pyridin-6-yl]benzenesulfonyl}cyclohexyl]aniline], the IC50 against human CCR6 [1] is 126 nM; at human CCR6 [2] it was 10 nM; in the assay with Human CD4+ T cells it was 1.58 nM.

With `O=S(=O)(c1ccc(-c2ccc3nccn3c2)cc1)[C@H]1CC[C@@H](Nc2ccc(S(F)(F)(F)(F)F)cc2)CC1` [Example 18, 4-(pentafluoro-λ^6-sulfanyl)-N-[cis-4-(4-{imidazo[1,2-a]pyridin-6-yl}benzenesulfonyl)cyclohexyl]aniline], the IC50 against human CCR6 [1] is 158 nM; against human CCR6 [2], 200 nM; with Human CD4+ T cells, 6.31 nM.

As to `Cc1nc2cc(-c3ccc(S(=O)(=O)[C@H]4CC[C@H](Nc5ccc(S(F)(F)(F)(F)F)cc5)CC4)cc3)ccn2n1` [Example 41, 4-(pentafluoro-λ^6-sulfanyl)-N-[trans-4-(4-{2-methyl-[1,2,4]triazolo[1,5-a]pyridin-7-yl}benzenesulfonyl)cyclohexyl]aniline], the IC50 at human CCR6 [1] was 158 nM; on human CCR6 [2], 79.4 nM; with Human CD4+ T cells it was 5.01 nM.

On to `NC(=O)c1cc(-c2ccc(S(=O)(=O)N3CCC(Nc4ccc(S(F)(F)(F)(F)F)cc4)CC3)cc2)ccn1` [Example 177, 4-{4-[(4-{[4-(pentafluoro-λ^6-sulfanyl)phenyl]amino}piperidin-1-yl)sulfonyl]phenyl}pyridine-2-carboxamide], for which the half-maximal inhibitory concentration (IC50) is 79.4 nM at human CCR6 [1], 79.4 nM against human CCR6 [2] and 12.6 nM with Human CD4+ T cells.

For the compound `CN(C)C(=O)c1ccc(-c2ccc(S(=O)(=O)[C@H]3CC[C@H](Nc4ccc(S(F)(F)(F)(F)F)cc4)CC3)cc2)cn1` [Example 20, N,N-dimethyl-5-(4-{[trans-4-{[4-(pentafluoro-λ^6-sulfanyl)phenyl]Amino}cyclohexyl]sulfonyl}phenyl)pyridine-2-carboxamide], the figures for the IC50 against human CCR6 [1], on human CCR6 [2] and in the assay with Human CD4+ T cells were 100 nM, 398 nM and 31.6 nM, respectively.

Consider `NC(=O)c1cc(-c2ccc(S(=O)(=O)[C@H]3CC[C@H](Nc4ccc(S(F)(F)(F)(F)F)cc4)CC3)cc2)ccn1` [Example 10, 4-(4-{[trans-4-{[4-(pentafluoro-λ^6-sulfanyl)phenyl]Amino}cyclohexyl]sulfonyl}phenyl)pyridine-2-carboxamide], for which the IC50 is 79.4 nM on human CCR6 [1], 5.01 nM against human CCR6 [2] and 2 nM in the assay on Human CD4+ T cells.

`O=S(=O)(c1ccc(-c2ccc3nccn3c2)cc1)[C@H]1CC[C@H](Nc2ccc(S(F)(F)(F)(F)F)cn2)CC1` [Example 180, 5-(pentafluoro-λ^6-sulfanyl)-N-[trans-4-(4-{imidazo[1,2-a]pyridin-6-yl}benzenesulfonyl)cyclohexyl]pyridin-2-amine]: the IC50 against human CCR6 [1] was 100 nM; on human CCR6 [2], 25.1 nM; with Human CD4+ T cells, 7.94 nM.

In the case of `Cc1nnc2ccc(-c3ccc(S(=O)(=O)[C@H]4CC[C@H](Nc5ccc(S(F)(F)(F)(F)F)cn5)CC4)cc3)cn12` [Example 179, 5-(pentafluoro-λ^6-sulfanyl)-N-[trans-4-(4-{3-methyl-[1,2,4]triazolo[4,3-a]pyridin-6-yl}benzenesulfonyl)cyclohexyl]pyridin-2-amine], the IC50 against human CCR6 [1] is 79.4 nM; against human CCR6 [2], 10 nM; in the assay on Human CD4+ T cells it was 6.31 nM.

Values taken from US20260070902A1, “SULFONYL DERIVATIVES AS CCR6 INHIBITORS” (Hoffmann-La Roche Inc., priority 2022, published 2026).
